The text below walks through data of US20060093553A1, “Cd26-based therapies for cancers and immune disease” (priority 2002, published 2006).

Common to all, as to test: Surface expression on monocytes (flow cytometry)
Common to all, as to assay type: cell-based, Human
(Flow cytometry measures light scatter and fluorescence of single cells or particles in a stream.)

The subject of test [1] is CD80 expression on monocytes. The procedure: (§1) In studies assessing the expression of CD80, CD86, and HLA-DR on purified monocytes (0.5×10^6 monocytes/well), monocytes were preincubated with or without TT (0.5 μg/ml) for 16 h. Following incubation with sCD26 (0.5 μg/ml) for 24 h, FITC-conjugated CD80, CD86, and HLA-DR mAbs (10 μg/ml) were used with PE-conjugated anti-CD14 (10 μg/ml) to gate exclusively on the monocyte population. In experiments assessing the effect of M6P on cellular uptake of sCD26, purified monocytes (0.5×10^6 monocytes/well) were incubated with the appropriate concentration of M6P in the presence or absence of sCD26-OG for 24 h in standard medium. Cells were then washed twice in ice-cold PBS, followed by incubation for 2 min in acidic PBS (pH 3.0) to strip any sCD26-OG attached to the cell surface. Cells were washed in ice-cold PBS and were incubated with mouse Ig isotypes (1 μg/ml) to block nonspecific binding; this was followed by reaction with PE-conjugated anti-CD14 (10 μg/ml) to gate exclusively on monocyte population.
(§2) Flow cytometric analysis of 10,000 viable cells was conducted on FACSCalibur (BD Biosciences, Mountain View, Calif.). Each experiment was repeated at least three times, and the results were provided in the form of a histogram of a representative experiment, or increased mean percent±SE fluorescent intensity compared with control or untreated cells.

In test [2] the test system is CD86 expression on monocytes. Here is the method:
as §1, §2

Test [3] has as its system HLA-DR expression on monocytes. Here is the method:
as §1, §2

With TT: recall antigen tetanus toxoid, the “% Increase of CD80 expression on monocytes” value in test [1] was 2.0 ± 0.4%. Further, in test [2], the “% Increase of CD86 expression on monocytes” value worked out at 1.2 ± 2%. Moreover, the “% Increase of HLA-DR expression on monocytes” value in test [3] turned out to be 0.3 ± 0.2%.
